Measurements published in patent US11497751B2, “Modulators of Rho-associated protein kinase” (Redx Pharma PLC, priority 2018, dated 2022).

Target: T1, N-terminal 6His-tagged ROCK2 catalytic domain 11-552 (Homo sapiens, UniProt O75116)
T1 construct: N-terminal 6His-tagged ROCK2 catalytic domain 11-552; 6His (N); purchased Dundee University, UK; host or cells: baculovirus expression system
Assay: ROCK2 binding activity: ROCK2 inhibition, ADP-Glo Kinase Assay
Type: biochemical
Conditions: 1.25 nM ROCK2, 100 μM long S6 peptide, 20 μM ATP; 1 hour pre-incubation; read-out: ADP-Glo kinase activity assay ROCK2 Category
Experimental: Assay for ROCK2 inhibition was performed using the protein construct N-terminal 6His-tagged ROCK2 catalytic domain 11-552 (Dundee University, UK). Protein was purified from a baculovirus expression system. Long S6 peptide ([…]) was used as substrate. Kinase reactions were carried out in 15 μl volume in a 96-well plate (black, half area) using 1.25 nM constitutively active ROCK2 kinase, 100 μM long S6 peptide, 20 μM ATP and test compound in DMSO (or DMSO only for controls). The final concentration of DMSO was 1%. Assay buffer was 50 mM HEPES pH 7.5 supplemented with 0.2 mM EDTA, 10 mM magnesium acetate, 0.01% Tween-20, 1 mM DTT and 0.01% BSA. Test compounds were pre-incubated with ROCK2 kinase for 1 hour before addition of ATP and long S6 peptide. After incubation for a further 1 hour, the amount of ADP produced was measured using ADP-Glo Kinase Assay (Promega) as per manufacturer's instructions. The luminescence was measured on a PHERAstar FS (BMG Labtech). The concentration of test compound required to inhibit ADP production by 50% (the IC50) was calculated using a four-parameter logistic function with software by Dotmatics.
The category “+” refers to compounds with a ROCK2 IC50 value of >10 μM. The category “++” refers to compounds with a ROCK2 IC50 value of 10 to 3 μM. The category “+++” refers to compounds with a ROCK2 IC50 value of 3 to 0.3 μM. The category “++++” refers to compounds with a ROCK2 IC50 value of <0.3 μM.

T1 sequence (O75116 11-552): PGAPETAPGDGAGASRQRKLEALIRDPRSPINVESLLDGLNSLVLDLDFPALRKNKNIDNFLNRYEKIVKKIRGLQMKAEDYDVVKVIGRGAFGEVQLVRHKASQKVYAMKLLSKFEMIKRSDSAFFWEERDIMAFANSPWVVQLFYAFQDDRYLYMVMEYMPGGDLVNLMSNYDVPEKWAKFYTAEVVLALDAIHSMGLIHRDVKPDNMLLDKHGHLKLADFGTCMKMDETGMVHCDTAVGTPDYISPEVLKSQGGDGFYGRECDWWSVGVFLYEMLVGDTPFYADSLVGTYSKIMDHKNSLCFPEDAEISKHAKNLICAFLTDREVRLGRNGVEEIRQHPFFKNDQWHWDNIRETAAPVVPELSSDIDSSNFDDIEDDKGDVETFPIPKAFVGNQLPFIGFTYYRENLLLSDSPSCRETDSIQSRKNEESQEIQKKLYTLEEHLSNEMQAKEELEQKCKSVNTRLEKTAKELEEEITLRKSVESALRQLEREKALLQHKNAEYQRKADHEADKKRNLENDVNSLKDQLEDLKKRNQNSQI

Row | Structure (SMILES) | IC50 [nM]
1 | Cn1nc(-c2ccc(S(=O)(=O)N3CCOCC3)cc2)nc1Nc1ccc2[nH]ncc2c1Cl [Example 78] | 3000 to 10000
2 | Cn1nc(C2=CCCNC2)nc1Nc1ccc2[nH]ncc2c1Cl [Example 81] | 3000 to 10000
3 | Cn1nc(C2=CCC(N)CC2)nc1Nc1ccc2[nH]ncc2c1Cl (centres unmarked) [Example 84] | > 10000
4 | COCCOc1cccc(-c2nc(Nc3ccc4[nH]ncc4c3Cl)n(C)n2)c1 [Example 85] | < 300
5 | COc1cc(-c2nc(Nc3ccc4[nH]ncc4c3Cl)n(C)n2)ccc1NCC(=O)NC(C)C [Example 87] | < 300
6 | Cn1nc(-c2ccco2)nc1Nc1ccc2[nH]ncc2c1Cl [Example 96] | 300 to 3000
7 | CN1CCc2cc(-c3nc(Nc4ccc5[nH]ncc5c4Cl)n(C)n3)ccc2C1=O [Example 97] | < 300
8 | Cn1nc(C2=CCOCC2)nc1Nc1ccc2[nH]ncc2c1Cl [Example 98] | > 10000
9 | COc1ccc(-c2nc(Nc3ccc4[nH]ncc4c3Cl)n(C)n2)c(F)c1 [Example 104] | < 300
10 | Cc1cc(-c2nc(Nc3ccc4[nH]ncc4c3Cl)n(C)n2)n(C)n1 [Example 107] | 300 to 3000
11 | Cn1nc(C2=CCCC2)nc1Nc1ccc2[nH]ncc2c1Cl [Example 108] | 300 to 3000
12 | Cn1nc(-c2cn[nH]c2)nc1Nc1ccc2[nH]ncc2c1Cl [Example 111] | 300 to 3000
13 | CC(C)n1nccc1-c1nc(Nc2ccc3[nH]ncc3c2Cl)n(C)n1 [Example 112] | 300 to 3000
14 | COc1ccc(F)c(-c2nc(Nc3ccc4[nH]ncc4c3Cl)n(C)n2)c1 [Example 114] | < 300
15 | COCCn1cc(-c2nc(Nc3ccc4[nH]ncc4c3Cl)n(C)n2)cn1 [Example 115] | < 300
16 | Cn1nc(-c2cnn(CCN3CCOCC3)c2)nc1Nc1ccc2[nH]ncc2c1Cl [Example 117] | 300 to 3000
17 | Cn1nc(-c2c[nH]c3ccncc23)nc1Nc1ccc2[nH]ncc2c1Cl [Example 121] | 3000 to 10000
18 | Cn1nc(-c2ccc(OCCn3ccc(=O)cc3)cc2)nc1Nc1ccc2[nH]ncc2c1Cl [Example 122] | < 300
19 | Cn1nc(-c2cncc(N)c2)nc1Nc1ccc2[nH]ncc2c1Cl [Example 130] | < 300
20 | Cn1nccc1-c1nc(Nc2ccc3[nH]ncc3c2Cl)n(C)n1 [Example 134] | 300 to 3000
21 | Cn1nc(-c2cccc(OC(F)(F)F)c2)nc1Nc1ccc2[nH]ncc2c1Cl [Example 136] | 300 to 3000

Row | Structure (SMILES) | IC50 [nM]
22 | COc1cc(-c2nc(Nc3ccc4[nH]ncc4c3C)n(C)n2)ccc1OCC(=O)NC1CCNC1 (centres unmarked) [Example 141] | < 300
23 | COc1cc(-c2nc(Nc3cc4cn[nH]c4cc3Cl)n(C)n2)ccc1C(=O)NCC(F)(F)F [Example 144] | 3000 to 10000
24 | COc1cc(-c2nc(Nc3ccc4[nH]ncc4c3Cl)n(C(C)C)n2)ccc1OCC(=O)NC(C)C [Example 145] | < 300
25 | CC(C)NC(=O)COc1ccc(-c2nc(Nc3ccc4[nH]ncc4c3)n(-c3ccccc3F)n2)cc1 [Example 146] | < 300
26 | COc1cc(-c2nnc(Nc3ccc4[nH]ncc4c3)n2-c2ccccn2)ccc1OCC(=O)NC(C)C [Example 147] | < 300
27 | CC(C)NC(=O)COc1ccc(-c2nnc(Nc3ccc4[nH]ncc4c3)n2-c2ccccn2)cc1 [Example 148] | < 300
28 | COc1cc(-c2nc(Nc3ccc4[nH]ncc4c3Cl)n(-c3ccccc3)n2)ccc1OCC(=O)NC1CCNC1 (centres unmarked) [Example 149] | < 300
29 | COc1cc(-c2nc(Nc3ccc4[nH]ncc4c3Cl)n(-c3ccccn3)n2)ccc1OCC(=O)NC(C)C [Example 151] | > 10000
30 | COc1cc(-c2nc(Nc3ccc4[nH]ncc4c3Cl)n(-c3ccncc3)n2)ccc1OCC(=O)NC(C)C [Example 152] | < 300
31 | COc1cc(-c2nc(Nc3ccc4[nH]ncc4c3Cl)n(-c3ccccn3)n2)ccc1C(=O)NCC(F)(F)F [Example 153] | < 300
32 | O=C(COc1ccc(-c2nnc(Nc3ccc4[nH]ncc4c3)[nH]2)cc1)N1CCOCC1 [Example 154, 2-[4-[5-(1H-Indazol-5-ylamino)-4H-1,2,4-triazol-3-yl]phenoxy]-1-morpholinoethanone] | 300 to 3000
33 | COCCNC(=O)COc1ccc(-c2nnc(Nc3ccc4[nH]ncc4c3)[nH]2)cc1 [Example 155] | 300 to 3000
34 | O=C(COc1ccc(-c2nnc(Nc3ccc4[nH]ncc4c3)[nH]2)cc1)NC1CCNC1 (centres unmarked) [Example 156] | < 300
35 | O=C(COc1ccc(-c2nnc(Nc3ccc4[nH]ncc4c3)[nH]2)cc1)N[C@@H]1CCNC1 [Example 157] | < 300
36 | O=C(COc1ccc(-c2nnc(Nc3ccc4[nH]ncc4c3)[nH]2)cc1)N[C@H]1CCNC1 [Example 158] | < 300
37 | O=C(COc1ccc(-c2nnc(Nc3ccc4[nH]ncc4c3)[nH]2)cc1)NC1CCOC1 (centres unmarked) [Example 159] | 300 to 3000
38 | O=C(COc1ccc(-c2nnc(Nc3ccc4[nH]ncc4c3)[nH]2)cc1)NC1CCCC1 [Example 160] | < 300
39 | O=C(COc1ccc(-c2nnc(Nc3ccc4[nH]ncc4c3)[nH]2)cc1)NC1CCC1 [Example 161] | < 300
40 | O=C(COc1ccc(-c2nnc(Nc3ccc4[nH]ncc4c3)[nH]2)cc1)NC1CC1 [Example 162] | < 300
41 | CN1CCC(NC(=O)COc2ccc(-c3nnc(Nc4ccc5[nH]ncc5c4)[nH]3)cc2)C1 (centres unmarked) [Example 163] | 300 to 3000

Results, then the compound that gave them:

Row | IC50 [nM] | Structure (SMILES)
42 | 300 to 3000 | CN(C)C(=O)c1ccc(-c2nc(Nc3ccc4[nH]ncc4c3Cl)n(C)n2)cc1 [Example 82]
43 | < 300 | CCC(=O)Nc1ccc(-c2nc(Nc3ccc4[nH]ncc4c3Cl)n(C)n2)cc1OC [Example 83]
44 | < 300 | COc1ccc(-c2nc(Nc3ccc4[nH]ncc4c3Cl)n(C)n2)cc1Cl [Example 86]
45 | 300 to 3000 | Cn1nc(-c2ccc(CO)cc2)nc1Nc1ccc2[nH]ncc2c1Cl [Example 88]
46 | < 300 | Cn1nc(-c2ccccc2O)nc1Nc1ccc2[nH]ncc2c1Cl [Example 89]
47 | < 300 | CCOC(=O)c1cncc(-c2nc(Nc3ccc4[nH]ncc4c3Cl)n(C)n2)c1 [Example 90]
48 | < 300 | Cn1nc(-c2ccc(O)cc2)nc1Nc1ccc2[nH]ncc2c1Cl [Example 91]
49 | 3000 to 10000 | Cn1nc(-c2cccnc2)nc1Nc1ccc2[nH]ncc2c1Cl [Example 93]
50 | < 300 | CN(C)CCNC(=O)c1ccc(-c2nc(Nc3ccc4[nH]ncc4c3Cl)n(C)n2)cc1 [Example 94]
51 | < 300 | COc1ccc(-c2nc(Nc3ccc4[nH]ncc4c3Cl)n(C)n2)cc1 [Example 99]
52 | < 300 | COc1cc(-c2nc(Nc3ccc4[nH]ncc4c3Cl)n(C)n2)ccc1O [Example 101]
53 | < 300 | Cn1nc(-c2ccc(N3CCOCC3)cc2)nc1Nc1ccc2[nH]ncc2c1Cl [Example 102]
54 | < 300 | CC(C)Oc1ccc(-c2nc(Nc3ccc4[nH]ncc4c3Cl)n(C)n2)cn1 [Example 103]
55 | < 300 | Cn1nc(-c2ccc(CN3CCOCC3)cc2)nc1Nc1ccc2[nH]ncc2c1Cl [Example 105]
56 | < 300 | Cn1nc(-c2ccc(C(=O)NCC3CCCO3)cc2)nc1Nc1ccc2[nH]ncc2c1Cl (centres unmarked) [Example 106]
57 | 3000 to 10000 | Cc1ccc(-c2nc(Nc3ccc4[nH]ncc4c3Cl)n(C)n2)cn1 [Example 109]
58 | 300 to 3000 | Cn1nc(-c2cccc(C#N)c2)nc1Nc1ccc2[nH]ncc2c1Cl [Example 110]

Row | IC50 [nM] | Structure (SMILES)
59 | > 10000 | COCc1cccc(-c2nc(Nc3ccc4[nH]ncc4c3Cl)n(C)n2)c1 [Example 113]
60 | < 300 | COC(=O)c1ccc(-c2nc(Nc3ccc4[nH]ncc4c3Cl)n(C)n2)cc1OC [Example 118]
61 | 3000 to 10000 | Cn1ccc(-c2nc(Nc3ccc4[nH]ncc4c3Cl)n(C)n2)n1 [Example 119]
62 | 3000 to 10000 | Cn1nc(-c2cccc(N)c2)nc1Nc1ccc2[nH]ncc2c1Cl [Example 120]
63 | 300 to 3000 | Cn1nc(-c2ccccc2N)nc1Nc1ccc2[nH]ncc2c1Cl [Example 123]
64 | < 300 | CNC(=O)c1ccc(-c2nc(Nc3ccc4[nH]ncc4c3Cl)n(C)n2)cn1 [Example 124]
65 | < 300 | Cn1nc(-c2ccc(S(N)(=O)=O)cc2)nc1Nc1ccc2[nH]ncc2c1Cl [Example 125]
66 | 300 to 3000 | CN(C)c1ccc(-c2nc(Nc3ccc4[nH]ncc4c3Cl)n(C)n2)cn1 [Example 127]
67 | < 300 | Cn1nc(-c2ccc(CN)c(F)c2)nc1Nc1ccc2[nH]ncc2c1Cl [Example 128]
68 | 300 to 3000 | Cn1nc(-c2cncc(O)c2)nc1Nc1ccc2[nH]ncc2c1Cl [Example 129]
69 | < 300 | Cn1nc(-c2ccc(C(N)=O)cc2)nc1Nc1ccc2[nH]ncc2c1Cl [Example 131]
70 | 300 to 3000 | Cn1nc(-c2cccc(N)c2)nc1Nc1ccc2[nH]ncc2c1Cl [Example 132]
71 | 300 to 3000 | Cn1nc(-c2ccnc(N)c2)nc1Nc1ccc2[nH]ncc2c1Cl [Example 133]
72 | < 300 | CNC(=O)c1cccc(-c2nc(Nc3ccc4[nH]ncc4c3Cl)n(C)n2)c1 [Example 135]
73 | 300 to 3000 | Cn1nc(-c2ccc(Oc3ccccc3)cc2)nc1Nc1ccc2[nH]ncc2c1Cl [Example 137]
74 | < 300 | Cn1nc(-c2ccc(OC(F)(F)F)cc2)nc1Nc1ccc2[nH]ncc2c1Cl [Example 138]
